Experimental data from US12371432B2, “Haloallylamine compounds and application thereof” (TransThera Sciences (Nanjing), Inc., priority 2019, dated 2025).
Where a name gives a salt, the structure may show the parent alone.

Molecular target: T1, rhVAP-1 (Homo sapiens, UniProt Q16853)
T1 construct: purchased PeproTech
T1 sequence (Q16853 27-763 limits assumed): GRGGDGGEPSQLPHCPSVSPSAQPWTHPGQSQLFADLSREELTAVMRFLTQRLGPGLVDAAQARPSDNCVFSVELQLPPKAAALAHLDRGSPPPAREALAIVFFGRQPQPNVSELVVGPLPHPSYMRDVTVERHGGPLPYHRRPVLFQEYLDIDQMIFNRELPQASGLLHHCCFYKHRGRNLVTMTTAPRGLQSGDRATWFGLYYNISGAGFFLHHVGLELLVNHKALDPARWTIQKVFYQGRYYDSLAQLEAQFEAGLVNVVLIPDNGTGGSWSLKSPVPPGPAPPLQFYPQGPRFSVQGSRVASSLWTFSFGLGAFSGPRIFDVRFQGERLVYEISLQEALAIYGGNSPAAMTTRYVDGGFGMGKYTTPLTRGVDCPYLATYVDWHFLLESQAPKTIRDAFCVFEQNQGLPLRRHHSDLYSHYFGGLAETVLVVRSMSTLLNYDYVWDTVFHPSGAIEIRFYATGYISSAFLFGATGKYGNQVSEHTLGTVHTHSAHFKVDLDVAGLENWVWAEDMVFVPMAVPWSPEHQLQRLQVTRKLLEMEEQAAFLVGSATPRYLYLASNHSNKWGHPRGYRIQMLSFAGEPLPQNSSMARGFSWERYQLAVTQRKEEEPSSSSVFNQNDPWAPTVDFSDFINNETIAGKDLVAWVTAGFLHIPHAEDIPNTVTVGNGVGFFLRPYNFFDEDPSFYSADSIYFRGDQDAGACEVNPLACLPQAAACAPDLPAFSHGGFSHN
Assay: Inhibitory activity against rhVAP-1 enzyme (Biological Example 2)
Assay type: biochemical
Settings: Table 2; benzylamine substrate, Amplex Red/HRP
Outline: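 Enzyme was preincubated 30 min at 37 °C in PBS with a 10-point 3-fold compound dilution series. Benzylamine with Amplex Red/HRP was then added, and fluorescence (ex 580/em 620 nm) was read every 5 min for 30 min. Inhibition was taken from rates versus max wells, and IC50 from a variable-slope fit.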

IC50	SMILES
17 nM	Cl.NC/C(=C\F)Cn1cc2c(c1Cl)CCN(C1CC1)C2=O [Compound A42 hydrochloride, (E)-2-(2-(aminomethyl)-3-fluoroallyl)-1-chloro-5-cyclopropyl-2,5,6,7-tetrahydro-4H-pyrrolo[3,4-c]pyridin-4-one]
23 nM	NC/C(=C\F)Cn1c(Br)c2c(c1Br)C(=O)N(C1CC1)CC2 [Compound A33 hydrochloride, (E)-2-(2-(aminomethyl)-3-fluoroallyl)-1,3-dibromo-5-cyclopropyl-2,5,6,7-tetrahydro-4H-pyrrolo[3,4-c]pyridin-4-one]
8 nM	NC/C(=C\F)Cn1cc2c(=O)n(C3CC3)ccc2n1 [Compound A41, (E)-2-(2-(aminomethyl)-3-fluoroallyl)-5-cyclopropyl-2,5-dihydro-4H-pyrazolo[4,3-c]pyridin-4-one]
24 nM	Cc1c2c(cn1C/C(=C/F)CN)C(=O)N(C1CC1)CC2 [Compound A35 hydrochloride, (E)-2-(2-(aminomethyl)-3-fluoroallyl)-5-cyclopropyl-1-methyl-2,5,6,7-tetrahydro-4H-pyrrolo[3,4-c]pyridin-4-one]
45 nM	CCN1CCc2cn(C/C(=C/F)CN)cc2C1=O [Compound A25, (E)-2-(2-(aminomethyl)-3-fluoroallyl)-5-ethyl-2,5,6,7-tetrahydro-4H-pyrrolo[3,4-c]pyridin-4-one]
15 nM	Cl.NC/C(=C\F)Cn1cc2c(c1Br)CCN(C1CC1)C2=O [Compound A32 hydrochloride, (E)-2-(2-(aminomethyl)-3-fluoroallyl)-1-bromo-5-cyclopropyl-2,5,6,7-tetrahydro-4H-pyrrolo[3,4-c]pyridin-4-one]
40 nM	CNC(=O)c1cnn(C/C(=C/F)CN)c1 [Compound B1, (E)-1-(2-(aminomethyl)-3-fluoroallyl)-N-methyl-1H-pyrazole-4-carboxamide]
44 nM	NC/C(=C\F)Cn1cc2c(c1)C(=O)N(C1CC1)CC2 [Compound A22, (E)-2-(2-(aminomethyl)-3-fluoroallyl)-5-cyclopropyl-2,5,6,7-tetrahydro-4H-pyrrolo[3,4-c]pyridin-4-one]
46 nM	CC(C)(C)N1CCc2nn(C/C(=C/F)CN)cc2C1=O [Compound A7 hydrochloride, (E)-2-(2-(aminomethyl)-3-fluoroallyl)-5-tert-butyl-2,5,6,7-tetrahydro-4H-pyrazolo[4,3-c]pyridin-4-one]
60 nM	CCn1ccc2c(cnn2C/C(=C/F)CN)c1=O [Compound A29 hydrochloride, (E)-1-(2-(aminomethyl)-3-fluoroallyl)-5-ethyl-1,5-dihydro-4H-pyrazolo[4,3-c]pyridin-4-one]
23 nM	CCN1CCc2nn(C/C(=C/F)CN)cc2C1=O [Compound A6 hydrochloride, (E)-2-(2-(aminomethyl)-3-fluoroallyl)-5-ethyl-2,5,6,7-tetrahydro-4H-pyrazolo[4,3-c]pyridin-4-one]
33 nM	CCn1ccc2nn(C/C(=C/F)CN)cc2c1=O [Compound A28 hydrochloride, (E)-2-(2-(aminomethyl)-3-fluoroallyl)-5-ethyl-2,5-dihydro-4H-pyrazolo[4,3-c]pyridin-4-one]
